US20110294799A1, “Organic Compounds” (NOVARTIS AG, priority 2007, published 2011)

Experiments:
[1] = target: T1, GABA-A alpha1 receptor (alpha 1 subunit together with a beta and a gamma subunit) (Homo sapiens, UniProt P14867+P18507); assay: GABA-A receptor modulation, voltage-sensitive dye fluorescence in transfected eukaryotic cell line (alpha1); format: cell-based; settings: compounds at 3 μM, sub-maximal concentration of GABA (EC20); for activation at 3 µM: read-out: alpha1 % mod (percentage of increase of the fluorescent signal compared to signal without the agent)
T1 construct: expressed in transfected cells
T1 sequence (P14867 28-456): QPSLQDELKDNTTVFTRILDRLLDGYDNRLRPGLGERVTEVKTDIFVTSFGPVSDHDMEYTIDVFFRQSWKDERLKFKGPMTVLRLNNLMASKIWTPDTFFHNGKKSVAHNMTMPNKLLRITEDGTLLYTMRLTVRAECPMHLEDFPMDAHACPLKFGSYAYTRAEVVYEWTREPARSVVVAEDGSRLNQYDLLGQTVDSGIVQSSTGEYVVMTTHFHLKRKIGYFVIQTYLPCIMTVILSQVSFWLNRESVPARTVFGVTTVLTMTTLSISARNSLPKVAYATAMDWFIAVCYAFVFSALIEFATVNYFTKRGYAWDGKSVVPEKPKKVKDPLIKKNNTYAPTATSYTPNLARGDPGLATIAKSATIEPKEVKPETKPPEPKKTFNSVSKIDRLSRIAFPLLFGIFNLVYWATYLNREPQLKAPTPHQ
T1 sequence (P47870 25-512 partner limits assumed): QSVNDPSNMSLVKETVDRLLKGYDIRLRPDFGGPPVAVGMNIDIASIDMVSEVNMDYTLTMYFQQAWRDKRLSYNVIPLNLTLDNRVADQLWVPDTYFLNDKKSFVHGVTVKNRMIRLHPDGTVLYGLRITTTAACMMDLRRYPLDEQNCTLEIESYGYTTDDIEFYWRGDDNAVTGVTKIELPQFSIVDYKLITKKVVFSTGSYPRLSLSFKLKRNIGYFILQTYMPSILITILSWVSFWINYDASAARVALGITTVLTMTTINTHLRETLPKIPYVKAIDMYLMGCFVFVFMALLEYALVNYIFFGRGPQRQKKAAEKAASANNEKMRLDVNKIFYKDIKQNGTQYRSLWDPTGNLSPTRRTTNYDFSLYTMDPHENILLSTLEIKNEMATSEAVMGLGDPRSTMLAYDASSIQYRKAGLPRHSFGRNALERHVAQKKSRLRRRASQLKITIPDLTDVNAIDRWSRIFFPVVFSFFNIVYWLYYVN
T1 sequence (P18507 40-467 limits assumed): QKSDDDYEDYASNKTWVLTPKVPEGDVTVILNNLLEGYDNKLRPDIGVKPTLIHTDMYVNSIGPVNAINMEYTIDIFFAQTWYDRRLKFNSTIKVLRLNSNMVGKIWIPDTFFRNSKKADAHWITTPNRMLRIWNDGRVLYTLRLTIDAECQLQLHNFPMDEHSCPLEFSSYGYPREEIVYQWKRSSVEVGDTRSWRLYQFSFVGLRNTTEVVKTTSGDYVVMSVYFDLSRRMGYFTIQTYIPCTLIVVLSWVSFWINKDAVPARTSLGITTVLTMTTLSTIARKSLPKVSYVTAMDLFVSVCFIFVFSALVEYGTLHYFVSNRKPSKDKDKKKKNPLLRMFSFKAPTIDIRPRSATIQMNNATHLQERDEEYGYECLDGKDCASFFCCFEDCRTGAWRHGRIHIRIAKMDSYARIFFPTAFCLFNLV
Text: (§1) GABA-A receptor modulators show in functional assays a positive modulation of GABA-induced signals. This modulation can be determined in vitro, e.g., at recombinant GABA-A receptors expressed in a mammalian cell line, e.g. by measurement of GABA-A receptor induced changes of the trans-membrane voltage, when using a voltage-sensitive dye and a fluorescence detection system (Adkins, C. E., Pillai, G. V., Kerby, J., Bonnert, T. P., Haldon, C., Mckernan, R. M., Gonzalez, J. E., Oades, K., Whiting, P. J. & Simpson, P. B. [2001]. alpha4beta3delta GABA-A receptors characterized by fluorescence resonance energy transfer-derived measurements of membrane potential. J. Biol. Chem., 276, 38934-38939). In this assay, a modulator compound is pre-applied at different concentrations ranging from 0.1 nM to 10 μM to cells expressing GABA-A receptors and loaded with the voltage-sensitive dye, before, or at the same time as, a sub-maximal concentration of GABA (in the range of from 0.1 to 10 μM) is applied to the cells. The fluorescent signal is correlated with the degree of GABA-A receptor channel opening. This allows the quantification of effects induced by the modulator in a functional manner. By expression of different GABA-A receptor subunit combinations, the differential efficacy of a modulator at different GABA-A receptor variants can be tested. Other functional assays include the electrophysiological recording of Xenopus oocytes or mammalian cells expressing respective receptor variants. In addition, ion flux detectors can be used to functionally study GABA-A receptors in heterologous expression systems. The affinity of a compound to the GABA-A receptor can be measured in radioligand binding experiments using reference ligands containing a radioactive element, e.g., tritiated flumazenil, and intact cells or membrane preparations of cells expressing GABA-A receptors.
(§2) Activity and selectivity of a GABA-A receptor modulator according to the invention can, e.g., be determined in vitro as follows: A transfected eukaryotic cell line expressing the alpha1, alpha2 or alpha3 subunit of the GABA-A receptor together with a beta and a gamma subunit of the GABA-A receptor is incubated with a voltage-sensitive dye, and the effects of an agonist (typically GABA) or modulator addition are recorded in a fluorimetric plate reader. The opening of the GABA-A receptor channel and the subsequent flux of anions through it changes the trans-membrane voltage of the transfected cells, leading to a change in the fluorescent signal of the voltage-sensitive dye. In the presence of the agent of the invention, a sub-maximal concentration of GABA (e.g. an EC20 or an EC50) added to transfected cells expressing the alpha1, alpha2 or alpha3 subunit of the GABA-A receptor will elicit an at least 50%, preferably an at least 80%, ideally an at least 100%, increase, of the fluorescent signal, compared to the fluorescent signal obtained without the agent of the invention. In this assay, agents of the invention modulate the GABA-induced response at concentration from about 0.1 to about 10′000 nM.

[2] = target: T2, GABA-A alpha2 receptor (alpha 2 subunit together with a beta and a gamma subunit) (Homo sapiens, UniProt P18507+P47869); assay: GABA-A receptor modulation, voltage-sensitive dye fluorescence in transfected eukaryotic cell line (alpha2); format: cell-based; settings: compounds at 3 μM, sub-maximal concentration of GABA (EC20); for activation at 3 µM: read-out: alpha2 % mod (percentage of increase of the fluorescent signal compared to signal without the agent)
T2 construct: expressed in transfected cells
T2 sequence (P47869 29-451): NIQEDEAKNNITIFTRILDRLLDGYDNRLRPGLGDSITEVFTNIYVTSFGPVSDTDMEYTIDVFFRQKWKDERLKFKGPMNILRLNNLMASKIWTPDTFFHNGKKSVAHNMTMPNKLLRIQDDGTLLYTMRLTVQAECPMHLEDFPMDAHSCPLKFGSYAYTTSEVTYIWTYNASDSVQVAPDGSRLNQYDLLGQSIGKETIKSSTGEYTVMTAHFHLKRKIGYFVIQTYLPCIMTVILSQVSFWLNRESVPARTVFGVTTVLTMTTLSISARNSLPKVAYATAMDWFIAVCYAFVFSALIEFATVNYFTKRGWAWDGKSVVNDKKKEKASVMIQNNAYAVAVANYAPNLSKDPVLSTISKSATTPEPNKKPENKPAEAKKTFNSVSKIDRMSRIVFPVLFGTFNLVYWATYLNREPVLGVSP
T2 sequence (P47870 25-512 partner limits assumed): T1 sequence (P47870 25-512 partner limits assumed)
T2 sequence (P18507 40-467 limits assumed): T1 sequence (P18507 40-467 limits assumed)
Text: as §1, §2

Row | Structure (SMILES) | activation at 3 µM [1] | activation at 3 µM [2] | alpha1 % mod (percentage of increase of the fluorescent signal compared to signal without the agent) [1] | alpha2 % mod (percentage of increase of the fluorescent signal compared to signal without the agent) [2]
1 | COc1ccc(-n2nc3c(cnc4ccccc43)c2OCc2ccc(C(F)(F)F)cc2)cc1 [Example 1, 2-(4-Methoxy-phenyl)-3-(4-trifluoromethyl-benzyloxy)-2H-pyrazolo[4,3-c]quinoline] | 5% | 36% |  | 
2 | CCCCOc1c2cnc3ccccc3c2nn1-c1ccccc1 [Example 4, 3-butoxy-2-phenyl-2H-pyrazolo[4,3-c]quinoline] | 137% | 126% |  | 
3 | COc1ccc(-n2nc3c(cnc4ccccc43)c2OCCOc2ccccc2)cc1 [Example 13, 2-(4-methoxyphenyl)-3-(2-phenoxyethoxy)-2H-pyrazolo[4,3-c]quinoline] | -29% | 52% |  | 
4 | COc1ccc(-n2nc3c(cnc4ccccc43)c2OCCc2ccc(Cl)cc2)cc1 [Example 14, 3-[2-(4-chlorophenyl)ethoxy]-2-(4-methoxyphenyl)-2H-pyrazolo[4,3-c]quinoline] | 3% | 34% |  | 
5 | COc1ccc(-n2nc3c(cnc4ccccc43)c2OCCc2ccccc2Cl)cc1 [Example 15, 3-[2-(2-chlorophenyl)ethoxy]-2-(4-methoxyphenyl)-2H-pyrazolo[4,3-c]quinoline] | 23% | 197% |  | 
6 | Fc1ccccc1-n1nc2c(cnc3ccccc32)c1OCCc1ccccc1Cl [Example 16, 3-[2-(2-chlorophenyl)ethoxy]-2-(2-fluorophenyl)-2H-pyrazolo[4,3-c]quinoline] | 18% | 101% |  | 
7 | COc1ccc(-n2nc3c(cnc4ccccc43)c2OCCCN2CCN(C)C2=O)cc1 [Example 17, 1-(3-{[2-(4-methoxyphenyl)-2H-pyrazolo[4,3-c]quinolin-3-yl]oxy}propyl)-3-methylimidazolidin-2-one] | 262% | 577% |  | 
8 | COc1ccc(-n2nc3c(cnc4ccccc43)c2OCCN2CCOCC2)cc1 [Example 18, 2-(4-methoxyphenyl)-3-(2-morpholin-4-ylethoxy)-2H-pyrazolo[4,3-c]quinoline] | 67% | 196% |  | 
9 | Fc1ccccc1-n1nc2c(cnc3ccccc32)c1OCCN1CCOCC1 [Example 19, 2-(2-fluorophenyl)-3-(2-morpholin-4-ylethoxy)-2H-pyrazolo[4,3-c]quinoline] | 0% | 72% |  | 
10 | Fc1ccccc1COc1c2cnc3ccccc3c2nn1-c1ccccc1 [Example 27, 3-[(2-fluorobenzyl)oxy]-2-phenyl-2H-pyrazolo[4,3-c]quinoline] | 62% | 165% |  | 
11 | Fc1ccc(-n2nc3c(cnc4ccccc43)c2OCc2ccccc2F)cc1 [Example 28, 3-[(2-fluorobenzyl)oxy]-2-(4-fluorophenyl)-2H-pyrazolo[4,3-c]quinoline] | 34% | 146% |  | 
12 | Cc1cccc2c1ncc1c(OCc3ccc(Cl)cc3)n(-c3ccccc3)nc12 [Example 31, 3-[(4-chlorobenzyl)oxy]-6-methyl-2-phenyl-2H-pyrazolo[4,3-c]quinoline] | 51% | 81% |  | 
13 | N#Cc1ccc2ncc3c(OCc4ccc(Cl)cc4)n(-c4ccccc4)nc3c2c1 [Example 32, 3-[(4-chlorobenzyl)oxy]-2-phenyl-2H-pyrazolo[4,3-c]quinoline-8-carbonitrile] | 34% | 88% |  | 
14 | Fc1cccc2c1ncc1c(OCc3ccc(Cl)cc3)n(-c3ccccc3)nc12 [Example 33, 3-[(4-chlorobenzyl)oxy]-6-fluoro-2-phenyl-2H-pyrazolo[4,3-c]quinoline] | 39% | 73% |  | 
15 | Clc1ccccc1COc1c2cnc3ccccc3c2nn1-c1ccccn1 [Example 34, 3-[(2-chlorobenzypoxy]-2-pyridin-2-y1-2H-pyrazolo[4,3-c]quinoline] |  |  | 13 % mod | 57 % mod
16 | Cc1ccccc1-n1nc2c(cnc3ccccc32)c1OCc1ccccc1Br [Example 36, 3-[(2-bromobenzyl)oxy]-2-(2-methylphenyl)-2H-pyrazolo[4,3-c]quinoline] | 223% | 315% |  | 
17 | Clc1ccccc1-n1nc2c(cnc3ccccc32)c1OCc1ccccc1Br [Example 41, 3-[(2-bromobenzyl)oxy]-2-(2-chlorophenyl)-2H-pyrazolo[4,3-c]quinoline] | 289% | 386% |  | 
18 | Fc1ccc(-n2nc3c(cnc4ccccc43)c2OCc2ccccc2C(F)(F)F)cc1 [Example 50, 2-(4-fluorophenyl)-3-{[2-(trifluoromethyl)benzyl]oxy}-2H-pyrazolo[4,3-c]quinoline] | 47% | 236% |  | 
19 | Clc1ccccc1COc1c2cnc3ccccc3c2nn1-c1ccc2c(c1)OCO2 [Example 59, 2-(1,3-benzodioxo1-5-y1)-3-[(2-chlorobenzypoxy]-2H-pyrazolo[4,3-c]quinoline] |  |  | −17 % mod | 66 % mod
